The text below walks through data of ChEMBL document CHEMBL5715260, “Selectivity Literature for EUbOPEN Chemogenomic Library” (2024).

The target in test [1] is T1, Retinoic acid receptor RXR-alpha (Homo sapiens) (UniProt P19793).
T1 sequence (whole entry): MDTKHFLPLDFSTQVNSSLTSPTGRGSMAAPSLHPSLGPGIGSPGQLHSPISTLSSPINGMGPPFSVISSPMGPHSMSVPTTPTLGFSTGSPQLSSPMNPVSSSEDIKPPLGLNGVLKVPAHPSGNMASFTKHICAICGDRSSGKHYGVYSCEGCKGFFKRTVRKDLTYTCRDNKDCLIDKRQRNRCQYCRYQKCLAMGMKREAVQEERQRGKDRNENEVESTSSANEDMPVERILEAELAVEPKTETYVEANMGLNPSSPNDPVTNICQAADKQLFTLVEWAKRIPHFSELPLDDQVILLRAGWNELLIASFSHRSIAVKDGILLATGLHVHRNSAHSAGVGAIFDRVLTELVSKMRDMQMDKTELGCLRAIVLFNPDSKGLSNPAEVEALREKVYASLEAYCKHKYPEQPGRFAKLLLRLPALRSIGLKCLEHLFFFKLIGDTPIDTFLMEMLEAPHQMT
Put plainly: Selectivity interaction (Reporter gene assay) EUB0000182b RXRA. Details: recommended concentration 1 uM. As to conditions: reference bexarotene 1 uM, Selectivity number of off-targets 0.0, Selectivity number of targets 1.0, Source Knowledge inhouse.

Test [2] has as its target T2, Hepatocyte nuclear factor 4-alpha (Homo sapiens) (UniProt P41235).
T2 sequence (whole entry): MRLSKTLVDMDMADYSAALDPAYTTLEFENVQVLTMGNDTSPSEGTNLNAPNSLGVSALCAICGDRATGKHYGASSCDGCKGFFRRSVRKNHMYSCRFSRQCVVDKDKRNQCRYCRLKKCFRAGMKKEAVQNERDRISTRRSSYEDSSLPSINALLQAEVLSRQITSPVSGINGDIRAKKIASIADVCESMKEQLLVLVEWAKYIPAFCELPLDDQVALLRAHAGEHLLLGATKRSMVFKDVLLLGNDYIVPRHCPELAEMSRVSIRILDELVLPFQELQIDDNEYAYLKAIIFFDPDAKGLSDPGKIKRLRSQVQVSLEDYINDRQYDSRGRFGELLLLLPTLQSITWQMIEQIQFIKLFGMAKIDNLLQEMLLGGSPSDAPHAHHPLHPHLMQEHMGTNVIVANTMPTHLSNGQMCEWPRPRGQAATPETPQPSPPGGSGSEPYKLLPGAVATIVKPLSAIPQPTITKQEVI
Put plainly: Selectivity interaction (Reporter gene assay) EUB0000182b HNF4A. Details: recommended concentration 1 uM. (In general: Reporter assays use an easily measured gene product as a stand-in for the process of interest.)

For test [3], the target named is Nuclear receptor subfamily 4immunitygroup A member 1 (Homo sapiens) (UniProt P22736). Put plainly: Selectivity interaction (Reporter gene assay) EUB0000182b NR4A1. Details: recommended concentration 1 uM.
Sequence of Nuclear receptor subfamily 4immunitygroup A member 1 (Homo sapiens) (P22736 whole entry): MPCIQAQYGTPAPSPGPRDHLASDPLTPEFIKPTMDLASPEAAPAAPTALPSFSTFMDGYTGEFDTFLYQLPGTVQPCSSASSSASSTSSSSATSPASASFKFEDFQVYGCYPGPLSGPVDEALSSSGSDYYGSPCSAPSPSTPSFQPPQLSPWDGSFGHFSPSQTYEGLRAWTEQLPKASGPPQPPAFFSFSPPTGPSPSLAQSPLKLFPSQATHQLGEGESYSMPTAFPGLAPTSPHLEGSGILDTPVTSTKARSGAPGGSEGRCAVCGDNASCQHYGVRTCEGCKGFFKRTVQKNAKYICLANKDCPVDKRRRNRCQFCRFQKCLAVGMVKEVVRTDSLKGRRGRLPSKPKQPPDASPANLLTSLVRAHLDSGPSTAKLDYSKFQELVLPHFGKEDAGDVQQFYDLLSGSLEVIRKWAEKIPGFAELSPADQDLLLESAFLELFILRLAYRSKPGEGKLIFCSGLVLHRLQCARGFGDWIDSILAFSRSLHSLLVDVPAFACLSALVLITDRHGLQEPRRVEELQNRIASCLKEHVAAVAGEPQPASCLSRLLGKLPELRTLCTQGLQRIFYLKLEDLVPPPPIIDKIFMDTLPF
Test [4] concerns the target Steroidogenic factor 1 (Homo sapiens) (UniProt Q13285). Put plainly: Selectivity interaction (Reporter gene assay) EUB0000182b NR5A1. On the set-up: recommended concentration 1 uM.
Test [5] concerns the target T3, Nuclear receptor subfamily 2 group C member 1 (Homo sapiens) (UniProt P13056).
T3 sequence (whole entry): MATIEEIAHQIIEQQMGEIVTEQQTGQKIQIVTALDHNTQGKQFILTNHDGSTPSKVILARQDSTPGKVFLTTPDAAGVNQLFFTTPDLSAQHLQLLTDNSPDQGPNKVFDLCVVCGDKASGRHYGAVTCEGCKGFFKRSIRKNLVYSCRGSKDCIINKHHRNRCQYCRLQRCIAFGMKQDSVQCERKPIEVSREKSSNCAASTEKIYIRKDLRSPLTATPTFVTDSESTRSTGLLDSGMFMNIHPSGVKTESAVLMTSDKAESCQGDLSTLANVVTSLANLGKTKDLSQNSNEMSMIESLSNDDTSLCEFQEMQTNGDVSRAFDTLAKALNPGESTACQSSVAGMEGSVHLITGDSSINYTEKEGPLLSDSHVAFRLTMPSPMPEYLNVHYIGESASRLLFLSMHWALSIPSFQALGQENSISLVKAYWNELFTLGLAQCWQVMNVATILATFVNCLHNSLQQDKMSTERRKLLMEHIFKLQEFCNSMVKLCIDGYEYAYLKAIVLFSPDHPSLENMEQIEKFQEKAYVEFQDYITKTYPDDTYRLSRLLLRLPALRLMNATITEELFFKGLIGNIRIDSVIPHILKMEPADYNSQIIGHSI
Put plainly: Selectivity interaction (Reporter gene assay) EUB0000182b NR2C1. On the set-up: recommended concentration 1 uM.

Test [6] has as its target T4, Alpha trans-inducing protein (Human alphaherpesvirus 1) (UniProt A0A5J6DW59). Put plainly: Selectivity interaction (Reporter gene assay) EUB0000182b UL48. Details: recommended concentration 1 uM.
Test [7] deals with Nuclear receptor subfamily 2 group E member 1 (Homo sapiens) (UniProt Q9Y466). Put plainly: Selectivity interaction (Reporter gene assay) EUB0000182b NR2E1. Details: recommended concentration 1 uM.
Sequence of Nuclear receptor subfamily 2 group E member 1 (Homo sapiens) (Q9Y466 whole entry): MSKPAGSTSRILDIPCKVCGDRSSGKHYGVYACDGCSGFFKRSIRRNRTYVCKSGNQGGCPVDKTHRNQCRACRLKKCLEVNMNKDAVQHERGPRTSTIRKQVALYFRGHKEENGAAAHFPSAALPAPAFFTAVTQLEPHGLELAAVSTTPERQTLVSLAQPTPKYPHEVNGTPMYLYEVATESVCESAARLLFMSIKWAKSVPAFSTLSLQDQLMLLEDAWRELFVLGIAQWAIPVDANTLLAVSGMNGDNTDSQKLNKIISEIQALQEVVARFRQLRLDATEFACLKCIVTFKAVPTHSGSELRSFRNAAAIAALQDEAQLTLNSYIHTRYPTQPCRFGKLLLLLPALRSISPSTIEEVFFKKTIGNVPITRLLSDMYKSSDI
For test [8], the target named is T4, Alpha trans-inducing protein (Human alphaherpesvirus 1). Put plainly: Selectivity interaction (Reporter gene assay) EUB0000040b UL48. Details: recommended concentration 1 uM.
In test [9] the target is Nuclear receptor subfamily 2 group E member 1 (Homo sapiens) (UniProt Q9Y466).
The target of test [10] is Nuclear receptor subfamily 4immunitygroup A member 1 (Homo sapiens) (UniProt P22736).
The target is the same in test [11]. Put plainly: Selectivity interaction (Reporter gene assay) EUB0000081c NR4A1. On the set-up: recommended concentration 1 uM.
Test [12] deals with T2, Hepatocyte nuclear factor 4-alpha (Homo sapiens). Put plainly: Selectivity interaction (Reporter gene assay) EUB0000081c HNF4A. On the set-up: recommended concentration 1 uM.
Test [13] has as its target T4, Alpha trans-inducing protein (Human alphaherpesvirus 1). Put plainly: Selectivity interaction (Reporter gene assay) EUB0000081c UL48. On the set-up: recommended concentration 1 uM.
For test [14], the target named is T1, Retinoic acid receptor RXR-alpha (Homo sapiens). Put plainly: Selectivity interaction (Reporter gene assay) EUB0000081c RXRA. On the set-up: recommended concentration 1 uM.
Test [15] concerns the target Steroidogenic factor 1 (Homo sapiens) (UniProt Q13285). Put plainly: Selectivity interaction (Reporter gene assay) EUB0000081c NR5A1. Details: recommended concentration 1 uM.
Test [16] has as its target Nuclear receptor subfamily 2 group E member 1 (Homo sapiens) (UniProt Q9Y466). Put plainly: Selectivity interaction (Reporter gene assay) EUB0000081c NR2E1. On the set-up: recommended concentration 1 uM.
The target of test [17] is T3, Nuclear receptor subfamily 2 group C member 1 (Homo sapiens). Put plainly: Selectivity interaction (Reporter gene assay) EUB0000081c NR2C1. Details: recommended concentration 1 uM.
Test [18] addresses Adenosine receptor A1 (Homo sapiens) (UniProt P30542). Put plainly: Selectivity interaction (CEREP panel) EUB0000089c ADORA1. Details: recommended concentration 1 uM. As to conditions: at 10 µM.
Test [19] concerns the target 5-hydroxytryptamine receptor 2B (Homo sapiens) (UniProt P41595). Put plainly: Selectivity interaction (CEREP panel) EUB0000089c HTR2B. On the set-up: recommended concentration 1 uM. As to conditions: at 10 µM.
Test [20] addresses Adenosine receptor A2a (Homo sapiens) (UniProt P29274). Put plainly: Selectivity interaction (CEREP panel) EUB0000089c ADORA2A. On the set-up: recommended concentration 1 uM. As to conditions: at 10 µM.
The target of test [21] is Sodium-dependent noradrenaline transporter (Homo sapiens) (UniProt P23975). Put plainly: Selectivity interaction (CEREP panel) EUB0000089c SLC6A2. Details: recommended concentration 1 uM. As to conditions: at 10 µM.
Sequence of Sodium-dependent noradrenaline transporter (Homo sapiens) (P23975 whole entry): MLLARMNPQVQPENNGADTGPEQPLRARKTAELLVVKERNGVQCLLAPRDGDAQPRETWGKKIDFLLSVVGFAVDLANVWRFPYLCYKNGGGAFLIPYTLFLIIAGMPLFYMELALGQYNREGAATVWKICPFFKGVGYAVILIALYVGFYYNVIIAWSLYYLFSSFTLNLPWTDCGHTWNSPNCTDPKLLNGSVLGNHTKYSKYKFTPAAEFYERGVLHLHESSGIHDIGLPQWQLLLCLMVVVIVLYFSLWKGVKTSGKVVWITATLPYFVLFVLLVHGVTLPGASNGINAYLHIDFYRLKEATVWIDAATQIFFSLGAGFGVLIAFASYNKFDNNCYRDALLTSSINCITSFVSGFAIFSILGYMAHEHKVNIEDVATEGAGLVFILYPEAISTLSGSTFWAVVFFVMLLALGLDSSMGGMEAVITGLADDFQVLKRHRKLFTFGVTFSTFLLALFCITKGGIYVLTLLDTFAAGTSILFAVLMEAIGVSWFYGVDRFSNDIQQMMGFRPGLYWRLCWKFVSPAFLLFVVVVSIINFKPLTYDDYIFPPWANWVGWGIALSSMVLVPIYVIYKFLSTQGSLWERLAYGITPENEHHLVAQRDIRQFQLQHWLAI
The target in test [22] is Peroxisome proliferator-activated receptor delta (Homo sapiens) (UniProt Q03181). Put plainly: Selectivity interaction (Reporter gene assay) EUB0000185b PPARD. Details: recommended concentration 1 uM. As to conditions: screened at recom. conc., Selectivity number of off-targets 1.0, Selectivity number of targets 19.0, Source Knowledge inhouse.
Sequence of Peroxisome proliferator-activated receptor delta (Homo sapiens) (Q03181 whole entry): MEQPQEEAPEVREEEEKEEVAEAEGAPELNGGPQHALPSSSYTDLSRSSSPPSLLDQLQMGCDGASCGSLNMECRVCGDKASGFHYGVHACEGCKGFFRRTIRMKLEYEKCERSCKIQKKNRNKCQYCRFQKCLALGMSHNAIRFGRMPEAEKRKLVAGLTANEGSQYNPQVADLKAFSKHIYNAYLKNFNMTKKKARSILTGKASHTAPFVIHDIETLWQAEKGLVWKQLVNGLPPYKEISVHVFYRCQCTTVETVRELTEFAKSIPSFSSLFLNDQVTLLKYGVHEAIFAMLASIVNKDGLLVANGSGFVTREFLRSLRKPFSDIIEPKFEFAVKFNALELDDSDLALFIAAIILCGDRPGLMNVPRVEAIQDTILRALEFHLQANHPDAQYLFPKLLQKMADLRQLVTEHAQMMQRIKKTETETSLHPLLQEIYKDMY
Test [23] concerns the target T1, Retinoic acid receptor RXR-alpha (Homo sapiens). Put plainly: Selectivity interaction (Reporter gene assay) EUB0000185b RXRA. On the set-up: recommended concentration 1 uM. As to conditions: reference bexarotene 1 uM, Selectivity number of off-targets 0.0, Selectivity number of targets 1.0, Source Knowledge inhouse.
Test [24] concerns the target Steroidogenic factor 1 (Homo sapiens) (UniProt Q13285). Put plainly: Selectivity interaction (Reporter gene assay) EUB0000185b NR5A1. On the set-up: recommended concentration 1 uM.
Test [25] has as its target Nuclear receptor subfamily 4immunitygroup A member 1 (Homo sapiens) (UniProt P22736). Put plainly: Selectivity interaction (Reporter gene assay) EUB0000185b NR4A1. Details: recommended concentration 1 uM.
Test [26] deals with T2, Hepatocyte nuclear factor 4-alpha (Homo sapiens). Put plainly: Selectivity interaction (Reporter gene assay) EUB0000185b HNF4A. On the set-up: recommended concentration 1 uM.
Test [27] addresses T3, Nuclear receptor subfamily 2 group C member 1 (Homo sapiens). Put plainly: Selectivity interaction (Reporter gene assay) EUB0000185b NR2C1. On the set-up: recommended concentration 1 uM.
Test [28] has as its target T4, Alpha trans-inducing protein (Human alphaherpesvirus 1). Put plainly: Selectivity interaction (Reporter gene assay) EUB0000185b UL48. On the set-up: recommended concentration 1 uM.
Test [29] deals with Nuclear receptor subfamily 2 group E member 1 (Homo sapiens) (UniProt Q9Y466). Put plainly: Selectivity interaction (Reporter gene assay) EUB0000185b NR2E1. Details: recommended concentration 1 uM.

T4 sequence (A0A5J6DW59 as listed by the source): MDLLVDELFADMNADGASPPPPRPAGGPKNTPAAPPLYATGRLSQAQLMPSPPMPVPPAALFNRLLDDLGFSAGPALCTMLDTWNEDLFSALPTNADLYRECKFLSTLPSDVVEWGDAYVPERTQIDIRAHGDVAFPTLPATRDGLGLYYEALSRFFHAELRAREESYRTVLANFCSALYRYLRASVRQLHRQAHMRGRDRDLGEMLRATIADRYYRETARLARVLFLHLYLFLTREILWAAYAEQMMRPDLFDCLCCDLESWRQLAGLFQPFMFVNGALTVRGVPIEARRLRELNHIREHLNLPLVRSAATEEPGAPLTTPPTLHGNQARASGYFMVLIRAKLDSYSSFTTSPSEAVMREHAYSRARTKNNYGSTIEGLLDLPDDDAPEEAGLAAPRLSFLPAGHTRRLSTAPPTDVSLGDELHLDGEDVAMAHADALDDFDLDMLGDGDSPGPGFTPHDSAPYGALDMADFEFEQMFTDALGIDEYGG
Sequence of Steroidogenic factor 1 (Homo sapiens) (Q13285 whole entry): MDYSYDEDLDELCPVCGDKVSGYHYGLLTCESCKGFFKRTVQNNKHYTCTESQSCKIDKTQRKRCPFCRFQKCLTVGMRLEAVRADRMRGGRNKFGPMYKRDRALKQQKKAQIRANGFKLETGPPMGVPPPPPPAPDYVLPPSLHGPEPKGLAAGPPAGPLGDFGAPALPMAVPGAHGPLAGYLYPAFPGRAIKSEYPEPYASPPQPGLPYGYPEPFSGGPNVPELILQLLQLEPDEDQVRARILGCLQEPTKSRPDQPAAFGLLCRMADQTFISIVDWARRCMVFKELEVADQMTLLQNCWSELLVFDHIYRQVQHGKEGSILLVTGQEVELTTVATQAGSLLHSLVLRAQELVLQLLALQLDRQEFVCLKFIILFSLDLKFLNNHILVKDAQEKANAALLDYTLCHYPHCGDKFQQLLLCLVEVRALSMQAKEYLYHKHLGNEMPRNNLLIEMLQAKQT
Sequence of 5-hydroxytryptamine receptor 2B (Homo sapiens) (P41595 whole entry): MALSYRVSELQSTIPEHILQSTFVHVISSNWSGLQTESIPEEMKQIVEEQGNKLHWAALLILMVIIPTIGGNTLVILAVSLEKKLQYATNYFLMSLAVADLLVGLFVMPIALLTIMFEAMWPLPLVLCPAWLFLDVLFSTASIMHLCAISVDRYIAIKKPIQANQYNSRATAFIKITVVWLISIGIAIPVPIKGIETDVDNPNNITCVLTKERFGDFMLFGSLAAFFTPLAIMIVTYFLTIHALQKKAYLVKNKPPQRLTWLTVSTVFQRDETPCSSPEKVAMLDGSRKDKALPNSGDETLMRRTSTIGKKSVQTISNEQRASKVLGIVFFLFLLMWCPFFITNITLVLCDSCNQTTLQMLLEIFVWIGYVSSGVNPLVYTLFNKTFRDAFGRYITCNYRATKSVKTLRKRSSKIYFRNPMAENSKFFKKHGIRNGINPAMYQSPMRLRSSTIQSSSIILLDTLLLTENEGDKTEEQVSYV
Sequence of Adenosine receptor A2a (Homo sapiens) (P29274 whole entry): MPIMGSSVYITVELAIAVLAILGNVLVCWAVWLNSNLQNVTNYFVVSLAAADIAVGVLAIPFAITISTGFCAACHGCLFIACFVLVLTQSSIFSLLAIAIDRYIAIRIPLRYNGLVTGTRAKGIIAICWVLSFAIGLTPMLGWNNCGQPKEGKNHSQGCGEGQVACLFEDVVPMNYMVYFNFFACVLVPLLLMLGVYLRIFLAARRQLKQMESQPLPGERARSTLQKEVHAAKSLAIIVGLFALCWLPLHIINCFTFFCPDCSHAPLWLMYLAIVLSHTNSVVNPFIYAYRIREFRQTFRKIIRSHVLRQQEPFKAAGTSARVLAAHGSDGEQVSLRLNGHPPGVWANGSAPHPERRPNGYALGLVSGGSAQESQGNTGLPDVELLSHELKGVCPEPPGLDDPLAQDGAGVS
Sequence of Adenosine receptor A1 (Homo sapiens) (P30542 whole entry): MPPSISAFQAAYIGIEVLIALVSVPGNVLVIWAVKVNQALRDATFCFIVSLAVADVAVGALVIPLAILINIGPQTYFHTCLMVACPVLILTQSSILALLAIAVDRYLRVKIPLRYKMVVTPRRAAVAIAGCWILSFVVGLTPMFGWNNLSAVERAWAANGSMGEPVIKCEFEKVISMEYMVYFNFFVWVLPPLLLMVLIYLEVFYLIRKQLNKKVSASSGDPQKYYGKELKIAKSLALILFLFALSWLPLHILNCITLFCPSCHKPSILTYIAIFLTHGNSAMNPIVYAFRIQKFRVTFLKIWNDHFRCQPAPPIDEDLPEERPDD

For `COC(=O)/C=C/c1cccc(N(Cc2ccc(-c3ccc(N(C)C)cc3)cc2)C(=O)C2CCCCC2)c1`, the Relative activation in test [1] worked out at 0.492%. For the same compound, the Fold activation amounted to 1.05 in test [2]; 1.14 in test [3]; 1.09 in test [4]; 1.38 in test [5]; 1.24 in test [7]. In addition, the P-value in [6] was found to be 2.38e-08.
`O=S(=O)(c1ccccc1)N(CC(F)(F)F)c1ccc(C(O)(C(F)(F)F)C(F)(F)F)cc1` registered a P-value in [8] of 0.000575. The Remaining activity came to 0.742 in test [9] and 0.903 in [10].
In the case of `CC[C@H]1[C@@H](O)[C@@H]2[C@H](CC[C@]3(C)[C@@H]([C@H](C)CCC(=O)O)CC[C@@H]23)[C@@]2(C)CC[C@@H](O)C[C@@H]12`, the Fold activation in test [11] was determined as 1.23; in test [12], 1.14; in test [15], 1.04; in test [16], 1.13; in test [17], 1.19. The compound further came in with a P-value in test [13] of 0.000147. For the same compound, the Relative activation in test [14] came out at 0.53%.
For the compound `Nc1nc(NC2CC2)cc(-c2cccc(Cl)c2Cl)n1`, the Inhibition of control in test [18] turned out to be 79%; in [19], 92%; in test [20] it was 81%; in test [21], 99%.
As to `CC(C)(Sc1ccc(CCN(CCCCC2CCCCC2)C(=O)NC2CCCCC2)cc1)C(=O)O`, the Fold activation in test [22] amounted to 19.1; in test [25] it was 1.03; in test [27], 1.49. This compound yielded a Relative activation in test [23] of 0.845%. In addition, the results for the Remaining activity in test [24], in test [26] and in [29] were 0.897, 0.944 and 0.915, respectively. The compound further had a P-value in test [28] of 2.26e-05.
